Data taken from patent EP0423221B1, “IMMUNOSUPPRESSIVE AGENTS” (THE UNIVERSITY OF SHEFFIELD, priority 1988, dated 1990).
pEC50: −log10 of the molar value. Each block holds one molecule with its values, some of them ahead of it.

Key:
[1] = system: human mixed lymphocyte reaction; experiment: human mixed lymphocyte reaction (inhibition of 3H-thymidine incorporation); assay type: cell-based; conditions: for inhibition at 25 µM: Concentration of Solution 25 µM; for pEC50: concentration which brings about 50% inhibition of ^3H-thymidine incorporation, read-out: Immunosuppressive activity ED50; for immunosuppressive activity compared with azathioprine: statement in words; for inhibition at 10 µM: Concentration of Solution 10 µM
Excerpt: Fifteen of these compounds were screened for immunosuppressive activity by means of the human mixed lymphocyte reaction, which is well known and need not be further described here, the results of which are shown in Table 1.

[2] = system: lymphocytes

SMILES: Cn1cnc([N+](=O)[O-])c1Sc1nc2ccccc2[nH]1 [Compound 1]
inhibition at 36 µM ([1]; Homo sapiens, Lymphocyte, Concentration of Solution 36 µM): 98%

SMILES: Cc1ccc2[nH]c(Sc3c([N+](=O)[O-])ncn3C)nc2c1 [Compound 2]
inhibition at 25 µM ([1]; Homo sapiens, Lymphocyte): 86%

SMILES: Cn1cnc([N+](=O)[O-])c1Sc1nc2cc(F)c(Cl)cc2[nH]1 [Compound 4]
inhibition at 50 µM ([1]; Homo sapiens, Lymphocyte, Concentration of Solution 50 µM): 59%

SMILES: COc1cc2nc(Sc3c([N+](=O)[O-])ncn3C)[nH]c2cc1OC [Compound 5]
inhibition at 25 µM ([1]; Homo sapiens, Lymphocyte): 94%

SMILES: COc1ccc(OC)c2[nH]c(Sc3c([N+](=O)[O-])ncn3C)nc12 [Compound 6]
inhibition at 25 µM ([1]; Homo sapiens, Lymphocyte): 41%

SMILES: Cn1cnc([N+](=O)[O-])c1Sc1nc2ccccc2o1 [Compound 8]
inhibition at 25 µM ([1]; Homo sapiens, Lymphocyte): 87%

SMILES: Cn1cnc([N+](=O)[O-])c1Sc1nc2ccccc2s1 [Compound 9]
inhibition at 25 µM ([1]; Homo sapiens, Lymphocyte): 27%

pEC50 ([1]; Homo sapiens, Lymphocyte): 4.62
SMILES: Cn1cnc([N+](=O)[O-])c1Sc1ncnc2[nH]c(O)nc12 [Compound 11]
immunosuppressive activity compared with azathioprine [1]: less immunosuppressive than azathioprine
toxicity to lymphocytes compared with azathioprine [2]: much less toxic to the lymphocytes

SMILES: Cn1cnc([N+](=O)[O-])c1Sc1ccccc1C(=O)O [Compound 13]
inhibition at 25 µM ([1]; Homo sapiens, Lymphocyte): 34%

SMILES: Cn1cnc([N+](=O)[O-])c1Sc1ccccn1 [Compound 15]
inhibition at 25 µM ([1]; Homo sapiens, Lymphocyte): 76%

SMILES: Cn1cnc([N+](=O)[O-])c1Sc1ncccn1 [Compound 16]
inhibition at 25 µM ([1]; Homo sapiens, Lymphocyte): 47%

SMILES: CCn1c(C)nc([N+](=O)[O-])c1Sc1nc(C)cc(C)n1 [Compound 18]
inhibition at 25 µM ([1]; Homo sapiens, Lymphocyte): 47%

SMILES: Cn1cnc([N+](=O)[O-])c1Sc1nccc(O)n1 [Compound 19]
inhibition at 25 µM ([1]; Homo sapiens, Lymphocyte): 29%

pEC50 ([1]; Homo sapiens, Lymphocyte): 5.55
SMILES: Cn1cnc([N+](=O)[O-])c1Sc1ncc[nH]1 [Compound 21]
inhibition at 10 µM ([1]; Homo sapiens, Lymphocyte): 89%
immunosuppressive activity compared with azathioprine [1]: substantially more immunosuppressive than azathioprine
toxicity to lymphocytes compared with azathioprine [2]: considerably less toxic to lymphocytes

pEC50 ([1]; Homo sapiens, Lymphocyte): 5.50
SMILES: Cn1ccnc1Sc1c([N+](=O)[O-])ncn1C [Compound 22]
inhibition at 10 µM ([1]; Homo sapiens, Lymphocyte): 82%
immunosuppressive activity compared with azathioprine [1]: substantially more immunosuppressive than azathioprine
toxicity to lymphocytes compared with azathioprine [2]: considerably less toxic to lymphocytes

SMILES: CCOC(=O)CSc1c([N+](=O)[O-])ncn1C [Compound 30]
inhibition at 25 µM ([1]; Homo sapiens, Lymphocyte): 65%

SMILES: Cn1cnc([N+](=O)[O-])c1Sc1ncnc2nc[nH]c12 [I (azathioprine), azathioprine, reference compound]
inhibition at 25 µM ([1]; Homo sapiens, Lymphocyte): 79%
pEC50 ([1]; Homo sapiens, Lymphocyte): 5.10
Toxicity LD25 ([2]; human): 42.5
Therapeutic index ED50/LD25 ([2]; ratio of toxicity and immunosuppressive activity): 5.38
